Among the data in PubChem BioAssay AID330 (DTP/NCI, 2004) are T/C values, retold here.

The assay relates to P388 leukemia ip, CD2F1 mice, survival T/C. The assay is described as follows: NCI In Vivo Anticancer Drug Screen. Data for tumor model P388 Leukemia (intraperitoneal) in CD2F1 (CDF1) mice. Conditions: endpoint: median survival time, higher = longer survival. Summed up: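 Mice carrying the transplanted tumor received test compound or vehicle. Survival was recorded in each group, and the value is the treated-group measurement divided by that of the vehicle-treated control group.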

Setting [1] is: dose: 50.0 mg/kg/injection, schedule: Q01DX009 (ip), vehicle: saline.
Where [2] appears, read: dose: 100.0 mg/kg/injection, schedule: Q01DX009 (ip), vehicle: saline.
Setting [3] is: dose: 200.0 mg/kg/injection, schedule: Q01DX009 (ip), vehicle: saline.
Setting [4] is: dose: 50.0 mg/kg/injection, schedule: Q01DX009 (ip), vehicle: saline with Tween-80.
Where [5] appears, read: dose: 100.0 mg/kg/injection, schedule: Q01DX009 (ip), vehicle: saline with Tween-80.
Setting [6] is: dose: 200.0 mg/kg/injection, schedule: Q01DX009 (ip), vehicle: saline with Tween-80.
Where [7] appears, read: dose: 50.0 mg/kg/injection, schedule: Q01DX009 (ip), vehicle: Klucel (hydroxypropylcellulose) (HPC).
Where [8] appears, read: dose: 100.0 mg/kg/injection, schedule: Q01DX009 (ip), vehicle: Klucel (hydroxypropylcellulose) (HPC).
Setting [9] is: dose: 200.0 mg/kg/injection, schedule: Q01DX009 (ip), vehicle: Klucel (hydroxypropylcellulose) (HPC).
The mark [10] stands for this setting: dose: 50.0 mg/kg/injection, schedule: Q01DX005 (ip), vehicle: saline with Tween-80.
The mark [11] stands for this setting: dose: 6.25 mg/kg/injection, schedule: Q01DX005 (ip), vehicle: Klucel (hydroxypropylcellulose) (HPC).
The mark [12] stands for this setting: dose: 12.5 mg/kg/injection, schedule: Q01DX005 (ip), vehicle: Klucel (hydroxypropylcellulose) (HPC).

Where “and” joins values, the source holds several entries; their conditions need not be identical. Equal values may be shown once. Inconclusive results and toxic doses are left out.

As for `S=C([S-])N1CC[n+]2c(-c3ccccc3)csc21`, the T/C under setting [1] is 101 % of control, the T/C under setting [2] was 100 % of control and the T/C under setting [3] is 91 % of control.
For `C=CCNc1nnc(-c2ccccc2)s1`, the T/C runs as follows: under setting [4], 103 % of control; under setting [5], 100 % of control; under setting [6], 100 % of control.
Turning to `CNC(=O)O[C@H]1C(=O)O[C@@H]2C[C@H]3C(C)=C(O)C(=O)C[C@]3(C)[C@H]3[C@@H](O)[C@H](O)[C@@]4(C(=O)OC)OC[C@]32[C@@H]14`, the T/C was 105 % of control (dose: 1.0 mg/kg/injection, schedule: Q01DX005 (ip), vehicle: Klucel (hydroxypropylcellulose) (HPC)); 105 % of control (dose: 2.0 mg/kg/injection, schedule: Q01DX005 (ip), vehicle: Klucel (hydroxypropylcellulose) (HPC)); 102 % of control and 108 % of control (dose: 4.0 mg/kg/injection, schedule: Q01DX005 (ip), vehicle: Klucel (hydroxypropylcellulose) (HPC)); 102 % of control (dose: 8.0 mg/kg/injection, schedule: Q01DX005 (ip), vehicle: Klucel (hydroxypropylcellulose) (HPC)); 101 % of control (dose: 16.0 mg/kg/injection, schedule: Q01DX005 (ip), vehicle: Klucel (hydroxypropylcellulose) (HPC)); 103 % of control (dose: 125.0 micrograms/kg/injection, schedule: Q01DX005 (ip), vehicle: Klucel (hydroxypropylcellulose) (HPC)). In addition, the T/C (dose: 250.0 micrograms/kg/injection, schedule: Q01DX005 (ip), vehicle: Klucel (hydroxypropylcellulose) (HPC)) is 95 % of control; the T/C (dose: 500.0 micrograms/kg/injection, schedule: Q01DX005 (ip), vehicle: Klucel (hydroxypropylcellulose) (HPC)) was 95 % of control; the T/C (dose: 1000.0 micrograms/kg/injection, schedule: Q01DX005 (ip), vehicle: Klucel (hydroxypropylcellulose) (HPC)) is 99 % of control.
On to `C=C1C(=O)OC(C)(C)C1c1ccc(Cl)c(Cl)c1` (stereo not drawn), for which the T/C by setting is: under setting [7], 93 % of control; under setting [8], 92 % of control; under setting [9], 97 % of control.
`COc1ccc(-c2coc3cc(O)ccc3c2=O)c(O)c1OC`: the T/C was 97 % of control (dose: 100.0 mg/kg/injection, schedule: Q04DX003 (ip), vehicle: Klucel (hydroxypropylcellulose) (HPC)); 101 % of control (dose: 200.0 mg/kg/injection, schedule: Q04DX003 (ip), vehicle: Klucel (hydroxypropylcellulose) (HPC)); 99 % of control (dose: 400.0 mg/kg/injection, schedule: Q04DX003 (ip), vehicle: Klucel (hydroxypropylcellulose) (HPC)).
For `C/C(=N\NC(N)=Nc1ccc(Cl)cc1)c1ccc(Cl)c(Cl)c1`, the T/C (dose: 25.0 mg/kg/injection, schedule: Q04DX002 (ip), vehicle: saline with Tween-80) is 99 % of control; the T/C (dose: 50.0 mg/kg/injection, schedule: Q04DX002 (ip), vehicle: saline with Tween-80) is 102 % of control; the T/C (dose: 100.0 mg/kg/injection, schedule: Q04DX002 (ip), vehicle: saline with Tween-80) is 102 % of control.
Turning to `CN(C)C1=NC(NCc2ccccc2)(N(C)C)OC(N(C)C)=N1` (stereo not drawn), the T/C by setting is: (dose: 25.0 mg/kg/injection, schedule: Q01DX005 (ip), vehicle: saline) 107 % of control; (dose: 50.0 mg/kg/injection, schedule: Q01DX005 (ip), vehicle: saline) 96 % of control.
For `CN(/N=C\c1ccccc1)C(N)=S`, the T/C runs as follows: (dose: 50.0 mg/kg/injection, schedule: Q01DX005 (ip), vehicle: Klucel (hydroxypropylcellulose) (HPC)) 105 % of control; (dose: 100.0 mg/kg/injection, schedule: Q01DX005 (ip), vehicle: Klucel (hydroxypropylcellulose) (HPC)) 111 % of control; (dose: 200.0 mg/kg/injection, schedule: Q01DX005 (ip), vehicle: Klucel (hydroxypropylcellulose) (HPC)) 101 % of control.
For `CCOCC(=O)OC`, the T/C reads like this: under setting [1], 97 % of control; under setting [2], 95 % of control; under setting [3], 100 % of control.
Take `C/C(=N\NC(=S)N1CCC(C)CC1)c1ncccn1`: the T/C is 117 % of control (dose: 12.5 mg/kg/injection, schedule: Q04DX003 (ip), vehicle: Klucel (hydroxypropylcellulose) (HPC)) and 91 % of control (dose: 25.0 mg/kg/injection, schedule: Q04DX003 (ip), vehicle: Klucel (hydroxypropylcellulose) (HPC)).
Turning to `Cc1ccc2[nH]cc(C3CCCN4CCCCC34)c2c1` (stereo not drawn), the T/C reads like this: (dose: 12.5 mg/kg/injection, schedule: Q01DX001 (ip), vehicle: saline with Tween-80) 99 % of control; (dose: 25.0 mg/kg/injection, schedule: Q01DX001 (ip), vehicle: saline with Tween-80) 100 % of control; (dose: 50.0 mg/kg/injection, schedule: Q01DX001 (ip), vehicle: saline with Tween-80) 98 % of control; (dose: 90.0 mg/kg/injection, schedule: Q01DX001 (ip), vehicle: saline with Tween-80) 92 % of control.
As to `CCn1c(=O)c2[nH]c(=S)[nH]c2n(CC)c1=O`, the T/C by setting is: (dose: 16.0 mg/kg/injection, schedule: Q01DX009 (ip), vehicle: Klucel (hydroxypropylcellulose) (HPC)) 108 % of control; (dose: 32.0 mg/kg/injection, schedule: Q01DX009 (ip), vehicle: Klucel (hydroxypropylcellulose) (HPC)) 104 % of control; under setting [7], 105 % of control; (dose: 64.0 mg/kg/injection, schedule: Q01DX009 (ip), vehicle: Klucel (hydroxypropylcellulose) (HPC)) 107 % of control; under setting [8], 95 % of control; under setting [9], 102 % of control.
In the case of `COC(=O)c1ccc(SCCC(=O)CCl)cc1`, the T/C is 115 % of control under setting [4] and 116 % of control under setting [5].
Regarding `O=C1C2C3C=CC(O3)C2C(=O)N1/N=C/c1cccc2ccccc12` (stereo not drawn), the T/C runs as follows: under setting [10], 99 % of control; (dose: 100.0 mg/kg/injection, schedule: Q01DX005 (ip), vehicle: saline with Tween-80) 96 % of control; (dose: 200.0 mg/kg/injection, schedule: Q01DX005 (ip), vehicle: saline with Tween-80) 89 % of control.
As for `c1cc[c]([Sn]([NH]c2ncnc3[nH]cnc23)([NH]c2ncnc3[nH]cnc23)[c]2ccccc2)cc1`, the T/C is, setting by setting: (dose: 12.5 mg/kg/injection, schedule: Q01DX009 (ip), vehicle: saline) 123 % of control; under setting [8], 196 % of control.
With `CCOC(=O)c1ccc(NC(=O)Nc2ncccc2C)cc1`, the T/C was 98 % of control (dose: 0.78 mg/kg/injection, schedule: Q01DX009 (ip), vehicle: saline with Tween-80); 103 % of control (dose: 1.56 mg/kg/injection, schedule: Q01DX009 (ip), vehicle: saline with Tween-80); 92 % of control (dose: 6.25 mg/kg/injection, schedule: Q01DX009 (ip), vehicle: saline with Tween-80); 90 % of control (dose: 25.0 mg/kg/injection, schedule: Q01DX009 (ip), vehicle: saline with Tween-80); 89 % of control under setting [6].
As for `CC(=O)N(Cc1cnc2nc(N)[nH]c(=O)c2n1)c1ccc(C(=O)NC(CCC(=O)O)C(=O)O)cc1` (stereo not drawn), the T/C was 90 % of control (dose: 25.0 mg/kg/injection, schedule: Q01DX009 (ip), vehicle: saline); 100 % of control under setting [1]; 101 % of control and 104 % of control under setting [2].
Regarding `C/C(=C1\C(=O)Oc2c(ccc3ccccc23)C1=O)c1ccc2ccccc2c1O`, the T/C by setting is: (dose: 12.5 mg/kg/injection, schedule: Q01DX005 (ip), vehicle: saline with Tween-80) 99 % of control; (dose: 25.0 mg/kg/injection, schedule: Q01DX005 (ip), vehicle: saline with Tween-80) 99 % of control; under setting [10], 86 % of control and 97 % of control.
On to `C=CC(=NC(C)(C)C)Nc1ccccc1OC`, for which the T/C by setting is: (dose: 1.56 mg/kg/injection, schedule: Q01DX009 (ip), vehicle: saline) 99 % of control and 89 % of control; (dose: 3.12 mg/kg/injection, schedule: Q01DX005 (ip), vehicle: Klucel (hydroxypropylcellulose) (HPC)) 117 % of control; (dose: 3.12 mg/kg/injection, schedule: Q01DX009 (ip), vehicle: saline) 111 % of control and 86 % of control and 98 % of control; under setting [11], 117 % of control; (dose: 6.25 mg/kg/injection, schedule: Q01DX009 (ip), vehicle: saline) 102 % of control and 120 % of control and 95 % of control; under setting [12], 114 % of control.
As to `NNP(=S)(NN)Oc1ccccc1`, the T/C reads like this: under setting [11], 96 % of control; under setting [12], 114 % of control; (dose: 25.0 mg/kg/injection, schedule: Q01DX005 (ip), vehicle: Klucel (hydroxypropylcellulose) (HPC)) 105 % of control.
For `CC1(C)OC(=O)C(=CN(C2CCCCC2)C2CCCCC2)C(=O)O1`, the T/C is, setting by setting: (dose: 60.0 mg/kg/injection, schedule: Q01DX005 (ip), vehicle: Klucel (hydroxypropylcellulose) (HPC)) 96 % of control; (dose: 120.0 mg/kg/injection, schedule: Q01DX005 (ip), vehicle: Klucel (hydroxypropylcellulose) (HPC)) 86 % of control.
